Test results taken from PMC9024338, “Bruceine H Mediates EGFR-TKI Drug Persistence in NSCLC by Notch3-Dependent β-Catenin Activating FOXO3a Signaling” (Frontiers in Oncology, 2022).
“And” between values parts separate entries of the source, which are not always exact repeats. Equal entries are not always repeated. Where two headings read alike, the source gives them in different places.

Assay: Preliminary pharmacokinetics in SD rats
Format: in vivo
Design: AUC (0-t), individual rats No1-No3 / AUC (0-∞), individual rats No1-No3: concentration or dose not given beside the values
Description: We administered BH by gavage and intravenous administration to SD rats (male, 200–220 g, n = 6) after they had fasted for 12 h. For oral gavage, the BH was dissolved in DMSO/0.5% CMC-Na (5/95, v/v/), and for intravenous administration, it was dissolved in DMSO/0.9% NaCl (5/95, v/v/), and then the blood samples were collected at intervals to determine the pharmacokinetic (PK) profiles of SD rats.

## CC1=CC(=O)[C@@H](O)[C@]2(C)[C@H]3[C@@H](O)[C@H](O)[C@@]4(CO)OC[C@@]35[C@@H](C[C@@H]12)OC(=O)[C@H](O)[C@]54O [BH, Bruceine H]
male, SD, rat, plasma, po, 10 mg/kg, p.o. 10 mg/kg, 6 h, read-out: Concentration of BH in rat plasma, Mean
  concentration at 6 h: 80.5 ng/mL
male, SD, rat, plasma, po, 10 mg/kg, p.o. 10 mg/kg, 6 h, read-out: Concentration of BH in rat plasma, individual rats No1-No3
  concentration at 6 h: 97.6 ng/mL
male, SD, rat, plasma, po, 10 mg/kg, p.o. 10 mg/kg, 8 h, read-out: Concentration of BH in rat plasma, Mean
  concentration at 8 h: 42.3 ng/mL
male, SD, rat, plasma, po, 10 mg/kg, p.o. 10 mg/kg, 8 h, read-out: Concentration of BH in rat plasma, individual rats No1-No3
  concentration at 8 h: 50.4 ng/mL
male, SD, rat, plasma, po, 10 mg/kg, p.o. 10 mg/kg, 12 h, read-out: Concentration of BH in rat plasma, Mean
  concentration at 12 h: 16.4 ng/mL
male, SD, rat, plasma, po, 10 mg/kg, p.o. 10 mg/kg, 24 h, read-out: Concentration of BH in rat plasma, Mean
  concentration at 24 h: 3.33 ng/mL
male, SD, rat, plasma, po, 10 mg/kg, rat, p.o., read-out: AUC (0-t), Mean
  AUC(0-t): 961 ng·h/mL
male, SD, rat, plasma, po, 10 mg/kg, rat, p.o., read-out: AUC (0-t), individual rats No1-No3
  AUC(0-t): 1070 ng·h/mL
male, SD, rat, plasma, po, 10 mg/kg, rat, p.o., read-out: AUC (0-∞), Mean
  AUC(0-inf): 976 ng·h/mL
male, SD, rat, plasma, po, 10 mg/kg, rat, p.o., read-out: C_last, Mean
  concentration at 24 h: 2 ng/mL
male, SD, rat, plasma, po, 10 mg/kg, rat, p.o., read-out: Cmax, Mean
  Cmax: 147 ng/mL
male, SD, rat, plasma, po, 10 mg/kg, rat, p.o., read-out: Cmax, individual rats No2, No3
  Cmax: 145 ng/mL
male, SD, rat, plasma, po, 10 mg/kg, rat, p.o., read-out: MRT (0-∞), Mean
  MRT inf: 5.92 h
male, SD, rat, plasma, po, 10 mg/kg, rat, p.o., read-out: MRT (0-∞), individual rats No1-No3
  MRT inf: 5.5 h
male, SD, rat, plasma, po, 10 mg/kg, rat, p.o., read-out: t1/2z, Mean (converted)
  half-life: 3.35 h
male, SD, rat, plasma, po, 10 mg/kg, rat, p.o., read-out: λz, Mean (converted)
  k el: 6.89e-05 s⁻¹
male, Sprague-Dawley (SD), rat, plasma, iv, 2 mg/kg, rat, i.v., read-out: AUC (0-∞), Mean
  AUC(0-inf): 1050 ng·h/mL
male, Sprague-Dawley (SD), rat, plasma, iv, 2 mg/kg, rat, i.v., read-out: MRT (0-t), Mean
  MRT last: 5.01 h
male, Sprague-Dawley (SD), rat, plasma, iv, 2 mg/kg, rat, i.v., read-out: MRT (0-t), individual rats No1-No3
  MRT last: 4.99 h
male, Sprague-Dawley (SD), rat, plasma, po, 10 mg/kg, rat, p.o., read-out: AUC (0-∞), individual rats No1-No3
  AUC(0-inf): 1070 ng·h/mL
male, Sprague-Dawley (SD), rat, plasma, po, 10 mg/kg, rat, p.o., read-out: MRT (0-t), Mean
  MRT last: 5.54 h
male, Sprague-Dawley (SD), rat, plasma, po, 10 mg/kg, rat, p.o., read-out: MRT (0-t), individual rats No1-No3
  MRT last: 5.47 h
male, rat, plasma, SD rats, 10 mg/kg po vs 2 mg/kg iv, read-out: Oral bioavailability (F)
  bioavailability: 20.4%
male, rat, plasma, SD rats, 10 mg/kg po, read-out: Time of maximum concentration (T max)
  Tmax: 1 h
p.o. 10 mg/kg, 0.25 h, 10 mg/kg
  Concentration of BH in rat plasma, individual rats No1-No3: 10.5 ng/mL and 11.3 ng/mL
p.o. 10 mg/kg, 0.5 h, 10 mg/kg
  Concentration of BH in rat plasma, individual rats No1-No3: 55.4 ng/mL and 50.6 ng/mL
p.o. 10 mg/kg, 0.75 h, 10 mg/kg
  Concentration of BH in rat plasma, individual rats No1-No3: 98.5 ng/mL and 104.2 ng/mL
p.o. 10 mg/kg, 1 h, 10 mg/kg
  Concentration of BH in rat plasma, individual rats No1-No3: 145.3 ng/mL and 140.1 ng/mL
p.o. 10 mg/kg, 2 h, 10 mg/kg
  Concentration of BH in rat plasma, individual rats No1-No3: 117.7 ng/mL and 120.4 ng/mL
p.o. 10 mg/kg, 4 h, 10 mg/kg
  Concentration of BH in rat plasma, individual rats No1-No3: 99.4 ng/mL and 89.6 ng/mL
p.o. 10 mg/kg, 6 h, 10 mg/kg
  Concentration of BH in rat plasma, individual rats No1-No3: 75.3 ng/mL and 68.5 ng/mL
p.o. 10 mg/kg, 8 h, 10 mg/kg
  Concentration of BH in rat plasma, individual rats No1-No3: 35.4 ng/mL and 41.2 ng/mL
p.o. 10 mg/kg, 12 h, 10 mg/kg
  Concentration of BH in rat plasma, individual rats No1-No3: 16.8 ng/mL and 10.4 ng/mL and 22.1 ng/mL
p.o. 10 mg/kg, 24 h, 10 mg/kg
  Concentration of BH in rat plasma, individual rats No1-No3: 2.8 ng/mL and 1.8 ng/mL and 5.4 ng/mL
rat, i.v.
  AUC (0-t), individual rats No1-No3: 883.761 ng·h/mL and 981.633 ng·h/mL
  AUC (0-∞), individual rats No1-No3: 977.839 ng·h/mL and 1158.837 ng·h/mL
  AUMC (0-t), Mean: 4747.166 h*h*ng/mL
  AUMC (0-t), individual rats No1-No3: 4816.632 h*h*ng/mL and 3928.001 h*h*ng/mL and 5496.865 h*h*ng/mL
  AUMC (0-∞), Mean: 9005.111 h*h*ng/mL
  AUMC (0-∞), individual rats No1-No3: 6587.862 h*h*ng/mL and 7623.703 h*h*ng/mL and 12803.767 h*h*ng/mL
  C0, Mean: 516.231 ng/mL
  C0, individual rats No1-No3: 543.621 ng/mL and 515.672 ng/mL and 489.401 ng/mL
  CLz, individual rats No1-No3: 34.08878 mL/min/kg and 28.76447 mL/min/kg
  C_last, individual rats No1-No3: 6.155 ng/mL and 10.282 ng/mL
  MRT (0-t), individual rats No1-No3: 4.445 h and 5.6 h
  MRT (0-∞), individual rats No1-No3: 7.796 h and 11.049 h
  R_AUC (t/∞), Mean: 89.967%
  R_AUC (t/∞), individual rats No1-No3: 94.8% and 90.4% and 84.7%
  VRT (0-t), Mean: 33.805 h^2
  VRT (0-t), individual rats No1-No3: 30.325 h^2 and 31.091 h^2 and 40 h^2
  VRT (0-∞), Mean: 157.741 h^2
  VRT (0-∞), individual rats No1-No3: 73.322 h^2 and 156.114 h^2 and 243.787 h^2
  Vz, individual rats No1-No3: 31.260167 L/kg and 29.744277 L/kg
  t1/2z, individual rats No1-No3: 10.592 h and 11.943 h
  λz, individual rats No1-No3: 0.065 h⁻¹ and 0.058 h⁻¹
rat, p.o.
  AUC (0-t), individual rats No1-No3: 858.063 ng·h/mL and 958.688 ng·h/mL
  AUC (0-∞), individual rats No1-No3: 858.682 ng·h/mL and 1001.201 ng·h/mL
  AUMC (0-t), Mean: 5336.656 h*h*ng/mL
  AUMC (0-t), individual rats No1-No3: 5831.875 h*h*ng/mL and 4275.963 h*h*ng/mL and 5902.131 h*h*ng/mL
  AUMC (0-∞), Mean: 5811.834 h*h*ng/mL
  AUMC (0-∞), individual rats No1-No3: 5879.636 h*h*ng/mL and 4292.741 h*h*ng/mL and 7263.126 h*h*ng/mL
  CLz, individual rat No1: 155.9614 mL/min/kg
  C_last, individual rats No1-No3: 0.506 ng/mL and 0.202 ng/mL and 5.305 ng/mL
  Cmax, individual rats No2, No3: 140.1 ng/mL
  MRT (0-t), individual rats No1-No3: 4.983 h and 6.156 h
  MRT (0-∞), individual rats No1-No3: 4.999 h and 7.254 h
  R_AUC (t/∞), Mean: 98.5%
  R_AUC (t/∞), individual rats No1-No3: 99.8% and 99.9% and 95.8%
  VRT (0-t), Mean: 19.306 h^2
  VRT (0-t), individual rats No1-No3: 17.271 h^2 and 15.275 h^2 and 25.371 h^2
  VRT (0-∞), Mean: 29.291 h^2
  VRT (0-∞), individual rats No1-No3: 18.047 h^2 and 15.623 h^2 and 54.204 h^2
  Vz, individual rat No1: 32.202018 L/kg
  t1/2z, individual rats No1-No3: 2.385 h and 2.122 h and 5.553 h
  λz, individual rats No1-No3: 0.291 h⁻¹ and 0.327 h⁻¹ and 0.125 h⁻¹
